Here are results for 19 compounds from patent US12662491B2 (Redona Therapeutics, Inc., priority 2020, dated 2026).

As usually defined, the IC50 is the concentration needed to halve the response being measured.

Bounds are passed on as bounds.

The first assay addresses T1, Zcchc11 enzyme (Homo sapiens, UniProt Q5TAX3).
T1 construct: made in house; host or cells: HEK293 cells (Zcchc11); E. coli Rosetta II (LIN28A)
T1 sequence (Q5TAX3 212-1420): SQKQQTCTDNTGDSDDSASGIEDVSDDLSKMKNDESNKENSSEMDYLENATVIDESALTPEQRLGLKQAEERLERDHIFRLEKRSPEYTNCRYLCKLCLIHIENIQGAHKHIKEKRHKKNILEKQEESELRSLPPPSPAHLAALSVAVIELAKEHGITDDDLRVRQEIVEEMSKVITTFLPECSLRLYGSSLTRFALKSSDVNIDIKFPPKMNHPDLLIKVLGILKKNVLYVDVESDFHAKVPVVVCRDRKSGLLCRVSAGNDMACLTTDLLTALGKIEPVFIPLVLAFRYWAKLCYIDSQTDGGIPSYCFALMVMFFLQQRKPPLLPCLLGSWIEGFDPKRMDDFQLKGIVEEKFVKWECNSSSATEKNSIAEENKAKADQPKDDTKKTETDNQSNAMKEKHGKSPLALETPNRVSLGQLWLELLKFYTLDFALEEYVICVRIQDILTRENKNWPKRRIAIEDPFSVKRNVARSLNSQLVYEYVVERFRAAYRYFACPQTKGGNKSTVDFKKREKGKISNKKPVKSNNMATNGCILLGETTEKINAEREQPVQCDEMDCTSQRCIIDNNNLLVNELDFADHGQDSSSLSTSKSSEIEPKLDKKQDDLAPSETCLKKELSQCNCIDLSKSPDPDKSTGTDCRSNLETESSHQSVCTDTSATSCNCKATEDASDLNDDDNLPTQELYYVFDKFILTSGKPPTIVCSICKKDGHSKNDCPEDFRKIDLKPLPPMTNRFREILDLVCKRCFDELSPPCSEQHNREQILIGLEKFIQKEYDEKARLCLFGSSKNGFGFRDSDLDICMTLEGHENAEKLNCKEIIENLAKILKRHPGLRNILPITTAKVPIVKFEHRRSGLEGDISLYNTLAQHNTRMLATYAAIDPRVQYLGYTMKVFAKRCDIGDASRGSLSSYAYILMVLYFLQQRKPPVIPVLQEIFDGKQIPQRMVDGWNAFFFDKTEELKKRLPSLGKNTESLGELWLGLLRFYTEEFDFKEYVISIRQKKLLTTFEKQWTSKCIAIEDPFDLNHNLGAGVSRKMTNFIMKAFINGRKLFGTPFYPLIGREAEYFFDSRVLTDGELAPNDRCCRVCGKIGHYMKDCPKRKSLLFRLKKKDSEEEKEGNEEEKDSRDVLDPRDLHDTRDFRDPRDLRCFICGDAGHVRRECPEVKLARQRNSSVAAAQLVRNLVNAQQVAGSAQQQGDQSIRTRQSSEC
Briefly: TUTase assay (Zcchc11 assay, Lin28a-dependent polyuridylation of pre-let-7). Format: biochemical. To be noted: LIN28A 10 nM, Zcchc11 0.2 nM, 5′-fluorescein pre-let-7 miRNA 2 nM, UTP 5 uM, room temperature, 30 minutes pre-incubation; read-out: Potency Lin28a-dep Z11 IC50. Summed up:
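LIN28A (10 nM) in pH 7.3 HEPES/KCl/MgCl2/DTT buffer was mixed with serially diluted compound, then 0.2 nM truncated human Zcchc11 and 2 nM labeled pre-let-7 were added for 30 min at room temperature. UTP (5 uM) and quench probe (4 nM) then started the reaction. Linear early rates gave IC50 values.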
Consider `O=C(O)c1cn(-c2cnc(OCCO)cn2)c2cc(N3CCC[C@@H]3COc3ncccc3Cl)c(Cl)cc2c1=O` [Example 45, 6-chloro-7-[(2R)-2-[[(3-chloropyridin-2-yl)oxy]methyl]pyrrolidin-1-yl]-1-[5-(2-hydroxyethoxy)pyrazin-2-yl]-4-oxoquinoline-3-carboxylic acid], for which the IC50 is at most 1 µM.

The same assay, now with this note: Lin28a-dependent Zcchc11 (Z11) TUTase activity; read-out: Potency Lin28a-dep Z11 IC50.
In the case of `Cc1ccc(Cl)c(OC[C@H]2C[C@H]3C[C@H]3N2c2cc3c(cc2Cl)c(=O)c(C(=O)O)cn3-c2ccc(N(C)C)nc2)n1` [Compound 308, 6-chloro-7-[(1R,3R,5R)-3-{[(3-chloro-6-methylpyridin-2-yl)oxy]methyl}-2-azabicyclo [3.1.0]hexan-2-yl]-1-[6-(dimethyl-amino)pyridin-3-yl]-4-oxoquinoline-3-carboxylic acid], the IC50 is at most 1 µM.
`O=C(O)c1cn(-c2ccc(F)cn2)c2cc(N3CCC[C@@H]3COc3ccccn3)c(F)cc2c1=O` [Compound 150, (R)-6-fluoro-1-(5-fluoropyridin-2-yl)-4-oxo-7-(2-((pyridin-2-yloxy)methyl)pyrrolidin-1-yl)-1,4-dihydro-quinoline-3-carboxylic acid]: the IC50 lay in the range of 1 to 10 µM.
In the case of `CN(C)C1CN(c2ccc(-n3cc(C(=O)O)c(=O)c4cc(Cl)c(N5CC(c6ccccn6)C[C@@H]5COc5ncccc5Cl)cc43)cn2)C1` (mixture of isomers) [Compound 315, rac-6-chloro-7-((2R)-2-(((3-chloropyridin-2-yl)oxy)methyl)-4-(pyridin-2-yl)pyrrolidin-1-yl)-1-(6-(3-(dimethyl-amino)azetidin-1-yl)pyridin-3-yl)-4-oxo-1,4-dihydro-quinoline-3-carboxylic acid], the IC50 was at most 1 µM.
Turning to `O=C(O)c1cn(-c2ccc(O)cc2F)c2cc(N3CCC[C@@H]3COc3cnccn3)c(F)cc2c1=O` [Compound 89, (R)-6-fluoro-1-(2-fluoro-4-hydroxy-phenyl)-4-oxo-7-(2-((pyrazin-2-yloxy)methyl)pyrrolidin-1-yl)-1,4-dihydro-quinoline-3-carboxylic acid], the IC50 lay within 10 to 50 µM.
`Cc1cc2c(=O)c(C(=O)O)cn(-c3ccc(N4CC(N(C)C)C4)nc3)c2cc1N1C(=O)CC1COc1ccccn1` (stereo not shown) [Compound 298, 1-(6-(3-(dimethyl-amino)azetidin-1-yl)pyridin-3-yl)-6-methyl-4-oxo-7-(2-oxo-4-((pyridin-2-yloxy)methyl)azetidin-1-yl)-1,4-dihydro-quinoline-3-carboxylic acid]: the IC50 lay within 10 to 50 µM.
As for `Cc1cccnc1OC[C@H]1CCCN1c1cc2c(cc1Cl)c(=O)c(C(=O)O)cn2-c1ccc(N)nc1` [Compound 210, (R)-1-(6-aminopyridin-3-yl)-6-chloro-7-(2-(((3-methylpyridin-2-yl)oxy)methyl)pyrrolidin-1-yl)-4-oxo-1,4-dihydro-quinoline-3-carboxylic acid], the IC50 is at most 1 µM.
For `O=C(O)c1cn(-c2ccccc2)c2cc(N3CCC[C@@H]3COc3ncccc3Cl)c(F)cc2c1=O` [Compound 97, (R)-7-(2-(((3-chloro-pyridin-2-yl)oxy)methyl)pyrrolidin-1-yl)-6-fluoro-4-oxo-1-phenyl-1,4-dihydro-quinoline-3-carboxylic acid], the IC50 was at most 1 µM.

Staying with this assay, now noted: Lin28a-dependent Zcchc11 (Z11) TUTase assay; read-out: Potency Lin28a-dep Z11 IC50.
On to `COc1ccnc(OC[C@H]2C[C@H]3C[C@H]3N2c2cc3c(cc2Cl)c(=O)c(C(=O)O)cn3-c2ccc(N3CC(N(C)C)C3)nc2)c1C` [Example 683, 6-chloro-1-(6-(3-(dimethylamino)azetidin-1-yl)pyridin-3-yl)-7-((1R,3R,5R)-3-(((4-methoxy-3-methylpyridin-2-yl)oxy)methyl)-2-azabicyclo[3.1.0]hexan-2-yl)-4-oxo-1,4-dihydroquinoline-3-carboxylic acid], for which the concentration for half-maximal inhibition (IC50) is at most 1 µM.
Same read-out and setting: the same measure for `COCCNc1ccc(-n2cc(C(=O)O)c(=O)c3cc(Cl)c(N4CCC[C@@H]4COc4ncccc4Cl)cc32)cn1` [Example 413, (R)-6-chloro-7-(2-(((3-chloropyridin-2-yl)oxy)methyl)pyrrolidin-1-yl)-1-(6-((2-methoxyethyl)amino)pyridin-3-yl)-4-oxo-1,4-dihydroquinoline-3-carboxylic acid]: at most 1 µM.
On the same count and under the same terms, the same measure for `Cc1ccc(-n2cc(C(=O)O)c(=O)c3cc(F)c(N4CCC[C@@H]4COc4ccccn4)cc32)c(C)c1` [Example 394, (R)-1-(2,4-dimethylphenyl)-6-fluoro-4-oxo-7-(2-((pyridin-2-yloxy)methyl)pyrrolidin-1-yl)-1,4-dihydroquinoline-3-carboxylic acid]: 1 to 10 µM; for `O=C(O)c1cn(-c2ccc(N3CCC3)nc2)c2cc(N3CCC[C@@H]3COc3ncccc3Cl)c(Br)cc2c1=O` [Example 491, (R)-1-(6-(azetidin-1-yl)pyridin-3-yl)-6-bromo-7-(2-(((3-chloropyridin-2-yl)oxy)methyl)pyrrolidin-1-yl)-4-oxo-1,4-dihydroquinoline-3-carboxylic acid]: at most 1 µM; for `O=C(O)c1cn(C2CC(O)C2)c2cc(N3CCC[C@@H]3COc3ccccn3)c(F)cc2c1=O` (stereo partly drawn) [Example 452, (R)-6-fluoro-1-(3-hydroxycyclo-butyl)-4-oxo-7-(2-((pyridin-2-yloxy)methyl)pyrrolidin-1-yl)-1,4-dihydroquinoline-3-carboxylic acid]: 1 to 10 µM.
Still for that read-out and setting: the same measure for `O=C(O)c1cn(C2CCNC2)c2cc(N3CCC[C@@H]3COc3ncccc3Cl)c(Cl)cc2c1=O` (stereo partly drawn) [Example 367, 6-chloro-7-[(2R)-2-{[(3-chloro-pyridin-2-yl)oxy)methyl}pyrrolidin-1-yl]-4-oxo-1-(pyrrolidin-3-yl)-1,4-dihydroquinoline-3-carboxylic acid]: 1 to 10 µM; for `COCCn1cc(-n2cc(C(=O)O)c(=O)c3cc(Cl)c(N4CCC[C@@H]4COc4ncccc4Cl)cc32)cn1` [Example 435, (R)-6-chloro-7-(2-(((3-chloropyridin-2-yl)oxy)methyl)pyrrolidin-1-yl)-1-(1-(2-methoxy-ethyl)-1H-pyrazol-4-yl)-4-oxo-1,4-dihydroquinoline-3-carboxylic acid]: at most 1 µM.
As for `O=C(O)c1cn(-c2cc3cn[nH]c3cn2)c2cc(N3CCC[C@@H]3COc3ncccc3Cl)c(Cl)cc2c1=O` [Example 474, (R)-6-chloro-7-(2-(((3-chloropyridin-2-yl)oxy)methyl)pyrrolidin-1-yl)-4-oxo-1-(1H-pyrazolo[3,4-c]pyridin-5-yl)-1,4-dihydroquinoline-3-carboxylic acid], the IC50 was at most 1 µM.
For the compound `CN(C)C1CN(c2ccc(-n3cc(C(=O)O)c(=O)c4cc(F)c(N5CCC[C@@]5(C)COc5ncccc5Cl)nc43)cn2)C1` [Example 630, (S)-7-(2-(((3-chloropyridin-2-yl)oxy)methyl)-2-methylpyrrolidin-1-yl)-1-(6-(3-(dimethylamino)azetidin-1-yl)pyridin-3-yl)-6-fluoro-4-oxo-1,4-dihydro-1,8-naphthyridine-3-carboxylic acid], the IC50 is at most 1 µM.
For the compound `O=C(O)c1cn(C2CC3(CNC3)C2)c2cc(N3CCC[C@@H]3COc3ncccc3Cl)c(Cl)cc2c1=O` [Example 369, 1-{2-Azaspiro[3.3]heptan-6-yl}-6-chloro-7-[(2R)-2-{[(3-chloropyridin-2-yl)oxy]methyl}pyrrolidin-1-yl]-4-oxo-1,4-dihydroquinoline-3-carboxylic acid], the IC50 was 1 to 10 µM.
Turning to `COc1ccc(Cl)c(OC[C@H]2CC(C)(C)CN2c2cc3c(cc2Cl)c(=O)c(C(=O)O)cn3-c2ccnc(N)c2)n1` [Example 650, (R)-1-(2-aminopyridin-4-yl)-6-chloro-7-(2-(((3-chloro-6-methoxypyridin-2-yl)oxy)methyl)-4,4-dimethylpyrrolidin-1-yl)-4-oxo-1,4-dihydroquinoline-3-carboxylic acid], the IC50 is at most 1 µM.
